Laboratory results published in US7795456B2, “Insecticidal N-substituted sulfoximines” (Dow AgroSciences LLC, priority 2004, dated 2010).

Tests used:
[1] = system: beet armyworm (Spodoptera exigua); details: 50 μg/cm2, second-instar larvae, 5 days
[2] = system: fruit fly (Drosophila melanogaster); details: for FF 25: % mortality at 25 μg/cm2 against fruit fly in dietary tests: 25 μg/cm2, 48 h
[3] = system: corn earworm (Helicoverpa zea); details: 50 μg/cm2, second-instar larvae, 5 days
[4] = system: cotton aphid (Aphis gossypii); assay: Insecticidal test for cotton aphid, foliar spray on squash; details: Aphis gossypii, foliar, 72 h; for pest or weed control at 200 ppm: read-out: CA 200: % control at 200 ppm against cotton aphid in foliar spray tests; for pest or weed control at 50 ppm: read-out: CA 50: % control at 50 ppm against cotton aphid in foliar spray tests

Row | SMILES | BAW 50: % mortality at 50 μg/cm2 against beet armyworm in dietary tests [1] | FF 25: % mortality at 25 μg/cm2 against fruit fly in dietary tests [2] | CEW 50: % mortality at 50 μg/cm2 against corn earworm in dietary tests [3] | pest or weed control at 200 ppm [4] [%] | FF SYM: % showing intoxicated symptoms at 25 μg/cm2 against fruit fly in dietary tests ([2]; 25 μg/cm2, 4 h) | pest or weed control at 50 ppm [4] [%]
1 | CC[S@](=O)(=N[N+](=O)[O-])[C@@H](C)c1ccc(Cl)nc1 [Compound 40] | G (Inactive) | G (Inactive) | G (Inactive) | 80 to 89 | – | –
2 | CS(=O)(Cc1ccc(Cl)nc1)=N[N+](=O)[O-] (centres unmarked) [Compound 33] | G (Inactive) | F (Less than 50) | G (Inactive) | 90 to 100 | F (Less than 50) | 90 to 100
3 | Cc1ccc(CC2CCCS2(=O)=NC#N)cn1 (centres unmarked) [Compound 30] | G (Inactive) | G (Inactive) | G (Inactive) | 90 to 100 | – | 90 to 100
4 | N#CN=S1(=O)CCCCC1 [Compound 6, 1-Oxidohexahydro-1λ^4-thiopyran-1-ylidenecyanamide] | G (Inactive) | G (Inactive) | G (Inactive) | – | – | –
5 | COC(=O)N=S1(=O)CCCC1Cc1ccc(Cl)nc1 (centres unmarked) [Compound 7, methyl 2-[(6-chloropyridin-3-yl)methyl]-1-oxidotetrahydro-1H-1λ^4-thien-1-ylidenecarbamate] | G (Inactive) | G (Inactive) | G (Inactive) | 80 to 89 | – | –
6 | CC[S@](=O)(=N[N+](=O)[O-])[C@H](C)c1ccc(Cl)nc1 [Compound 39] | G (Inactive) | F (Less than 50) | G (Inactive) | 90 to 100 | – | –
7 | CC[S@@](=O)(C[C@@H](C)c1ccc(Cl)nc1)=NC#N [Compound 17] | G (Inactive) | G (Inactive) | G (Inactive) | 90 to 100 | – | 90 to 100
8 | CS(=O)(CCc1ccc(Cl)nc1)=N[N+](=O)[O-] (centres unmarked) [Compound 37] | G (Inactive) | G (Inactive) | G (Inactive) | 90 to 100 | – | 90 to 100
9 | CC(CS(C)(=O)=NC#N)c1ccc(Cl)nc1 (centres unmarked) [Compound 15] | G (Inactive) | G (Inactive) | G (Inactive) | 90 to 100 | – | 80 to 89
10 | CC(C)[C@H]1CCCS1(=O)=NC#N (some centres unmarked) [Compound 31] | G (Inactive) | G (Inactive) | G (Inactive) | 90 to 100 | – | –
11 | CC(Cc1ccc(Cl)nc1)CS(C)(=O)=NC#N (centres unmarked) [Compound 2, [3-(6-Chloropyridin-3-yl)-2-methylpropyl](methyl)oxido-λ^4-sulfanylidenecyanamide] | G (Inactive) | G (Inactive) | G (Inactive) | 90 to 100 | – | 80 to 89
